Results taken from US20020137929A1, “1 - (3-heterocyclylphenyl) isothiourea, -isourea, -guanidine and -amidine herbicidal agents” (Intellectual Property Department, BASF Aktiengesellschaft, priority 1998, published 2002).

Legend:
[1] = tested on: AMBEL (Ragweed, Common); assay: Postemergence herbicidal evaluation; format: in vivo, Ambrosia artemisifolia; settings: postemergence
How it was run: (§1)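 Rate range approx. 0.0156–0.500 kg/ha. Foliar application at 40 psi to ~2-week seedlings; surfactant 0.5% TWEEN 20 in 50/50 acetone/water. Evaluation 4–5 wk post-treatment by 0–9 visual injury score, means of replicate tests.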

[2] = tested on: CASOB (Sicklepod); assay: Postemergence herbicidal evaluation; format: in vivo, Cassia obtusifolia; settings: postemergence
How it was run: as §1

[3] = tested on: CHEAL (Lambsquarters, Common); assay: Postemergence herbicidal evaluation; format: in vivo, Chenopodium album; settings: postemergence
How it was run: as §1

[4] = tested on: GALAP (Galium); assay: Postemergence herbicidal evaluation; format: in vivo, Galium aparine; settings: postemergence
How it was run: as §1

[5] = tested on: ECHCG (Barnyardgrass); assay: Postemergence herbicidal evaluation; format: in vivo, Echinochloa crus-galli; settings: postemergence
How it was run: as §1

[6] = tested on: SETVI (Foxtail, Green); assay: Postemergence herbicidal evaluation; format: in vivo, Setaria viridis; settings: postemergence
How it was run: as §1

[7] = tested on: GLXMAW (Soybean, Williams); assay: Postemergence herbicidal evaluation; format: in vivo, Glycine max, (L.) Merr. cv Williams; settings: postemergence
How it was run: as §1

[8] = tested on: ORYSAT (Rice, Tebonnet); assay: Postemergence herbicidal evaluation; format: in vivo, Oryza sativa, (L.) Tebonnet; settings: postemergence
How it was run: as §1

[9] = tested on: CASOB (Sicklepod); assay: Preemergence herbicidal evaluation; format: in vivo, Cassia obtusifolia; settings: preemergence, rated 4-5 weeks after treatment, 0-9 scale
How it was run: (§2)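 Seeds were mixed with potting soil and planted on about one inch of soil, then sprayed with test compound in aqueous acetone at about 0.0156 to 0.500 kg per hectare. Plants grew under standard greenhouse care and were visually rated 0-9 against untreated controls 4-5 weeks post-treatment.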

[10] = tested on: GALAP (Galium); assay: Preemergence herbicidal evaluation; format: in vivo, Galium aparine; settings: preemergence, rated 4-5 weeks after treatment, 0-9 scale
How it was run: as §2

[11] = tested on: ZEAMX (Corn, Field); assay: Preemergence herbicidal evaluation; format: in vivo, Zea mays; settings: preemergence, rated 4-5 weeks after treatment, 0-9 scale
How it was run: as §2

[12] = tested on: CYPIR (Rice Flatsedge); assay: Preemergence weed control under flooded paddy conditions; format: in vivo, Cyperus iria; settings: rated 3-4 weeks after treatment
How it was run: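 Seeds or propagules sown in silt loam kept flooded 1.5-3 cm; compounds in 50/50 acetone/water pipetted into flood water at about 0.0313 to 0.500 kg/ha. Greenhouse; visual 0-9 rating versus untreated control 3-4 weeks after treatment.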

[13] = tested on: CYPSE (Flatsedge); assay: as above; format: in vivo, Cyperus serotinus; settings: rated 3-4 weeks after treatment
How it was run: (§3)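 First, seeds or propagules go into the top 0.5 cm of silt loam; next, water is held 1.5 to 3 cm over the soil; then compound (50/50 acetone/water) is pipetted into it at about 0.0313 to 0.500 kg/ha; finally plants are rated visually 0-9 after three to four weeks.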

[14] = tested on: SAGPY (Arrowhead (Pygmaea)); assay: as above; format: in vivo, Sagittaria pygmaea; settings: rated 3-4 weeks after treatment
How it was run: as §3

[15] = tested on: CYPSE (Flatsedge); assay: Postemergence weed control under flooded paddy conditions; format: in vivo, Cyperus serotinus; settings: postemergence weeds, rated 3 to 4 weeks after treatment
How it was run: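 Containers holding 3–5 cm weeds and rice at 1.5–2.5 leaves are flooded to 1.5–3 cm above soil. Compound in 50/50 v/v aqueous/acetone is then added directly to the water, about 0.0313–0.500 kg/ha. Plants are kept in the greenhouse and rated 0–9 visually at 3–4 weeks.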

## CN1C(=O)C(CC(=O)NS(=O)(=O)c2ccccc2)SC1=Nc1cc(-n2c(=O)cc(C(F)(F)F)n(C)c2=O)c(F)cc1Cl (centres unmarked) [Compound 102, 2-{{2-Chloro-5-[3,6-dihydro-3-methyl-2,6-dioxo-4-(trifluoromethyl)-1(2H)-pyrimidinyl]-4-fluorophenyl}imino}-3-methyl-4-oxo-N-(phenylsulfonyl)-5-thiazolidineacetamide]
[1]; rate 0.0156 kg/ha
  Herbicidal rating AMBEL: 7.0
[1]; rate 0.0313 kg/ha
  Herbicidal rating AMBEL: 9.0
[1]; rate 0.0625 kg/ha
  Herbicidal rating AMBEL: 7.0
[1]; rate 0.1250 kg/ha
  Herbicidal rating AMBEL: 9.0
[2]; rate 0.0156 kg/ha
  Herbicidal rating CASOB: 0.0
[2]; rate 0.0313 kg/ha
  Herbicidal rating CASOB: 1.0
[2]; rate 0.0625 kg/ha
  Herbicidal rating CASOB: 1.0
[2]; rate 0.1250 kg/ha
  Herbicidal rating CASOB: 3.0
[3]; rate 0.0156 kg/ha
  Herbicidal rating CHEAL: 3.0
[3]; rate 0.0313 kg/ha
  Herbicidal rating CHEAL: 4.0
[3]; rate 0.0625 kg/ha
  Herbicidal rating CHEAL: 6.0
[3]; rate 0.1250 kg/ha
  Herbicidal rating CHEAL: 7.0
[4]; rate 0.0156 kg/ha
  Herbicidal rating GALAP: 1.0
[4]; rate 0.0313 kg/ha
  Herbicidal rating GALAP: 1.0
[4]; rate 0.0625 kg/ha
  Herbicidal rating GALAP: 1.0
[4]; rate 0.1250 kg/ha
  Herbicidal rating GALAP: 4.0
[5]; rate 0.0156 kg/ha
  Herbicidal rating ECHCG: 0.0
[5]; rate 0.0313 kg/ha
  Herbicidal rating ECHCG: 1.0
[5]; rate 0.0625 kg/ha
  Herbicidal rating ECHCG: 2.0
[5]; rate 0.1250 kg/ha
  Herbicidal rating ECHCG: 6.0
[6]; rate 0.0156 kg/ha
  Herbicidal rating SETVI: 0.0
[6]; rate 0.0313 kg/ha
  Herbicidal rating SETVI: 1.0
[6]; rate 0.0625 kg/ha
  Herbicidal rating SETVI: 2.0
[6]; rate 0.1250 kg/ha
  Herbicidal rating SETVI: 4.0
[7]; rate 0.0156 kg/ha
  Herbicidal rating GLXMAW: 5.0
[7]; rate 0.0313 kg/ha
  Herbicidal rating GLXMAW: 5.0
[7]; rate 0.0625 kg/ha
  Herbicidal rating GLXMAW: 6.0
[7]; rate 0.1250 kg/ha
  Herbicidal rating GLXMAW: 7.5
[8]; rate 0.0156 kg/ha
  Herbicidal rating ORYSAT: 2.5
[8]; rate 0.0313 kg/ha
  Herbicidal rating ORYSAT: 3.0
[8]; rate 0.0625 kg/ha
  Herbicidal rating ORYSAT: 3.0
[8]; rate 0.1250 kg/ha
  Herbicidal rating ORYSAT: 3.0
[9]; 0.0156 kg/ha
  CASOB rating: 0.0
[9]; 0.0313 kg/ha
  CASOB rating: 0.0
[9]; 0.0625 kg/ha
  CASOB rating: 0.0
[9]; 0.2500 kg/ha
  CASOB rating: 0.0
[9]; 0.5000 kg/ha
  CASOB rating: 4.0
[10]; 0.0156 kg/ha
  GALAP rating: 0.0
[10]; 0.0313 kg/ha
  GALAP rating: 1.0
[10]; 0.0625 kg/ha
  GALAP rating: 0.0
[10]; 0.2500 kg/ha
  GALAP rating: 1.0
[10]; 0.5000 kg/ha
  GALAP rating: 4.0
[11]; 0.0156 kg/ha
  ZEAMX rating: 0.0
[11]; 0.0313 kg/ha
  ZEAMX rating: 0.0
[11]; 0.0625 kg/ha
  ZEAMX rating: 0.0
[11]; 0.2500 kg/ha
  ZEAMX rating: 0.0
[11]; 0.5000 kg/ha
  ZEAMX rating: 1.0
[12]; 0.2500 kg/ha
  CYPIR herbicidal effect rating: 2.0
[12]; 0.5000 kg/ha
  CYPIR herbicidal effect rating: 6.0
[13]; 0.2500 kg/ha
  CYPSE herbicidal effect rating: 0.0
[13]; 0.5000 kg/ha
  CYPSE herbicidal effect rating: 0.0
[14]; 0.2500 kg/ha
  SAGPY herbicidal effect rating: 0.0
[14]; 0.5000 kg/ha
  SAGPY herbicidal effect rating: 0.0
[15]; Rate 0.2500 kg/ha
  Herbicidal rating CYPSE: 0.0
[15]; Rate 0.5000 kg/ha
  Herbicidal rating CYPSE: 0.0

## C=CCN1C(=O)C(CC(=O)NS(=O)(=O)CC)SC1=Nc1cc(-n2c(=O)cc(C(F)(F)F)n(C)c2=O)c(F)cc1Cl (centres unmarked) [Compound 104, 3-Allyl-2-{{2-chloro-5-[3,6-dihydro-3-methyl-2,6-dioxo-4-(trifluoromethyl)-1(2H)-pyrimidinyl]-4-fluorophenyl}imino}-N-(ethylsulfonyl)-4-oxo-5-thiazolidineacetamide]
[1]; rate 0.0156 kg/ha
  Herbicidal rating AMBEL: 3.0
[1]; rate 0.0313 kg/ha
  Herbicidal rating AMBEL: 9.0
[1]; rate 0.0625 kg/ha
  Herbicidal rating AMBEL: 9.0
[1]; rate 0.1250 kg/ha
  Herbicidal rating AMBEL: 9.0
[2]; rate 0.0156 kg/ha
  Herbicidal rating CASOB: 0.0
[2]; rate 0.0313 kg/ha
  Herbicidal rating CASOB: 0.0
[2]; rate 0.0625 kg/ha
  Herbicidal rating CASOB: 0.0
[2]; rate 0.1250 kg/ha
  Herbicidal rating CASOB: 1.0
[3]; rate 0.0156 kg/ha
  Herbicidal rating CHEAL: 0.0
[3]; rate 0.0313 kg/ha
  Herbicidal rating CHEAL: 2.0
[3]; rate 0.0625 kg/ha
  Herbicidal rating CHEAL: 4.0
[3]; rate 0.1250 kg/ha
  Herbicidal rating CHEAL: 5.0
[4]; rate 0.0156 kg/ha
  Herbicidal rating GALAP: 0.0
[4]; rate 0.0313 kg/ha
  Herbicidal rating GALAP: 0.0
[4]; rate 0.0625 kg/ha
  Herbicidal rating GALAP: 1.0
[4]; rate 0.1250 kg/ha
  Herbicidal rating GALAP: 2.0
[5]; rate 0.0156 kg/ha
  Herbicidal rating ECHCG: 0.0
[5]; rate 0.0313 kg/ha
  Herbicidal rating ECHCG: 0.0
[5]; rate 0.0625 kg/ha
  Herbicidal rating ECHCG: 0.0
[5]; rate 0.1250 kg/ha
  Herbicidal rating ECHCG: 3.0
[6]; rate 0.0156 kg/ha
  Herbicidal rating SETVI: 0.0
[6]; rate 0.0313 kg/ha
  Herbicidal rating SETVI: 0.0
[6]; rate 0.0625 kg/ha
  Herbicidal rating SETVI: 3.0
[6]; rate 0.1250 kg/ha
  Herbicidal rating SETVI: 4.0
[7]; rate 0.0156 kg/ha
  Herbicidal rating GLXMAW: 4.5
[7]; rate 0.0313 kg/ha
  Herbicidal rating GLXMAW: 5.5
[7]; rate 0.0625 kg/ha
  Herbicidal rating GLXMAW: 7.0
[7]; rate 0.1250 kg/ha
  Herbicidal rating GLXMAW: 8.5
[8]; rate 0.0156 kg/ha
  Herbicidal rating ORYSAT: 0.0
[8]; rate 0.0313 kg/ha
  Herbicidal rating ORYSAT: 0.5
[8]; rate 0.0625 kg/ha
  Herbicidal rating ORYSAT: 1.0
[8]; rate 0.1250 kg/ha
  Herbicidal rating ORYSAT: 2.0
[9]; 0.0625 kg/ha
  CASOB rating: 0.0
[9]; 0.1250 kg/ha
  CASOB rating: 0.0
[9]; 0.2500 kg/ha
  CASOB rating: 0.0
[9]; 0.5000 kg/ha
  CASOB rating: 0.0
[10]; 0.0625 kg/ha
  GALAP rating: 0.0
[10]; 0.1250 kg/ha
  GALAP rating: 0.0
[10]; 0.2500 kg/ha
  GALAP rating: 0.0
[10]; 0.5000 kg/ha
  GALAP rating: 6.0
[11]; 0.0625 kg/ha
  ZEAMX rating: 0.0
[11]; 0.1250 kg/ha
  ZEAMX rating: 0.0
[11]; 0.2500 kg/ha
  ZEAMX rating: 0.0
[11]; 0.5000 kg/ha
  ZEAMX rating: 2.0
[12]; 0.0313 kg/ha
  CYPIR herbicidal effect rating: 5.0
[12]; 0.0625 kg/ha
  CYPIR herbicidal effect rating: 9.0
[12]; 0.1250 kg/ha
  CYPIR herbicidal effect rating: 9.0
[12]; 0.2500 kg/ha
  CYPIR herbicidal effect rating: 9.0
[13]; 0.0313 kg/ha
  CYPSE herbicidal effect rating: 0.0
[13]; 0.1250 kg/ha
  CYPSE herbicidal effect rating: 0.0
[13]; 0.2500 kg/ha
  CYPSE herbicidal effect rating: 0.0
[14]; 0.0313 kg/ha
  SAGPY herbicidal effect rating: 6.0
[14]; 0.0625 kg/ha
  SAGPY herbicidal effect rating: 9.0
[14]; 0.1250 kg/ha
  SAGPY herbicidal effect rating: 9.0
[14]; 0.2500 kg/ha
  SAGPY herbicidal effect rating: 9.0
[15]; Rate 0.0313 kg/ha
  Herbicidal rating CYPSE: 0.0
[15]; Rate 0.1250 kg/ha
  Herbicidal rating CYPSE: 0.0
[15]; Rate 0.2500 kg/ha
  Herbicidal rating CYPSE: 0.0
